pIC50, pKd: −log10 of the molar value.
Assays:
[1] = target: Epidermal growth factor receptor (Homo sapiens, UniProt P00533); assay: Displacement of radiolabeled EGF from EGF receptor expressed in human MX1 cells; format: cell-based
Mus musculus [2] = assay: Toxicity in human MX1 cells xenografted athymic nude Ncr nu/nu mouse assessed as body weight at 10 ug/day, sc after 24 days relative to control; format: organism-based; conditions: in vivo, 576 h
MX1 [3] = assay: Antitumor activity against human MX1 cells xenografted athymic nude Ncr nu/nu mouse assessed as inhibition of tumor weight at 10 ug/day, sc after 3 weeks; format: functional
MX1 [4] = assay: Antitumor activity against human MX1 cells xenografted athymic nude Ncr nu/nu mouse assessed as inhibition of tumor volume at 10 ug/day, sc after 3 weeks; format: functional
MX1 [5] = assay: Antitumor activity against human MX1 cells xenografted athymic nude Ncr nu/nu mouse assessed as inhibition of tumor volume at 20 mg/kg, ip after 3 weeks; format: functional; conditions: 504 h, route intraperitoneal
[6] = target: T1, Growth hormone-releasing hormone receptor (Homo sapiens, UniProt Q02643); assay: Displacement of [125I]JV1-42 from GHRH receptor expressed in human MX1 cells; format: cell-based
T1 sequence (Q02643 whole entry): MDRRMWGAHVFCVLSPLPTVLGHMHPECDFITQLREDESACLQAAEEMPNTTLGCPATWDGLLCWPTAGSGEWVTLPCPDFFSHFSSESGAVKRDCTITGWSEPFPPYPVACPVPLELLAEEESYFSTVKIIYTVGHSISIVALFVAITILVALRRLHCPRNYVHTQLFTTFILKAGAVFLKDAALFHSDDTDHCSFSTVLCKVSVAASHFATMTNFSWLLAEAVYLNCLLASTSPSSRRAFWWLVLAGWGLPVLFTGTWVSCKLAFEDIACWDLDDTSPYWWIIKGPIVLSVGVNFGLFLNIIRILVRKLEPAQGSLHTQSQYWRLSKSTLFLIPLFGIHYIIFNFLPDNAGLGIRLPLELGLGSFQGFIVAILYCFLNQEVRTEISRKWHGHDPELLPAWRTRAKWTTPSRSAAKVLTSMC

Mus musculus [7] = assay: Toxicity in human MX1 cells xenografted athymic nude Ncr nu/nu mouse assessed as body weight at 20 mg/kg, ip after 24 days relative to control; format: organism-based; parameters: dose 20 mg/kg, route intraperitoneal; conditions: in vivo, 576 h
MX1 [8] = assay: Antitumor activity against human MX1 cells xenografted athymic nude Ncr nu/nu mouse assessed as inhibition of tumor volume at 20 mg/kg, ip after 8 days; format: functional; conditions: 192 h, route intraperitoneal
MX1 [9] = assay: Antitumor activity against human MX1 cells xenografted athymic nude Ncr nu/nu mouse assessed as inhibition of tumor weight at 20 mg/kg, ip after 15 days; format: functional; conditions: 360 h, route intraperitoneal

Epidermal growth factor receptor, sequence (P00533 whole entry): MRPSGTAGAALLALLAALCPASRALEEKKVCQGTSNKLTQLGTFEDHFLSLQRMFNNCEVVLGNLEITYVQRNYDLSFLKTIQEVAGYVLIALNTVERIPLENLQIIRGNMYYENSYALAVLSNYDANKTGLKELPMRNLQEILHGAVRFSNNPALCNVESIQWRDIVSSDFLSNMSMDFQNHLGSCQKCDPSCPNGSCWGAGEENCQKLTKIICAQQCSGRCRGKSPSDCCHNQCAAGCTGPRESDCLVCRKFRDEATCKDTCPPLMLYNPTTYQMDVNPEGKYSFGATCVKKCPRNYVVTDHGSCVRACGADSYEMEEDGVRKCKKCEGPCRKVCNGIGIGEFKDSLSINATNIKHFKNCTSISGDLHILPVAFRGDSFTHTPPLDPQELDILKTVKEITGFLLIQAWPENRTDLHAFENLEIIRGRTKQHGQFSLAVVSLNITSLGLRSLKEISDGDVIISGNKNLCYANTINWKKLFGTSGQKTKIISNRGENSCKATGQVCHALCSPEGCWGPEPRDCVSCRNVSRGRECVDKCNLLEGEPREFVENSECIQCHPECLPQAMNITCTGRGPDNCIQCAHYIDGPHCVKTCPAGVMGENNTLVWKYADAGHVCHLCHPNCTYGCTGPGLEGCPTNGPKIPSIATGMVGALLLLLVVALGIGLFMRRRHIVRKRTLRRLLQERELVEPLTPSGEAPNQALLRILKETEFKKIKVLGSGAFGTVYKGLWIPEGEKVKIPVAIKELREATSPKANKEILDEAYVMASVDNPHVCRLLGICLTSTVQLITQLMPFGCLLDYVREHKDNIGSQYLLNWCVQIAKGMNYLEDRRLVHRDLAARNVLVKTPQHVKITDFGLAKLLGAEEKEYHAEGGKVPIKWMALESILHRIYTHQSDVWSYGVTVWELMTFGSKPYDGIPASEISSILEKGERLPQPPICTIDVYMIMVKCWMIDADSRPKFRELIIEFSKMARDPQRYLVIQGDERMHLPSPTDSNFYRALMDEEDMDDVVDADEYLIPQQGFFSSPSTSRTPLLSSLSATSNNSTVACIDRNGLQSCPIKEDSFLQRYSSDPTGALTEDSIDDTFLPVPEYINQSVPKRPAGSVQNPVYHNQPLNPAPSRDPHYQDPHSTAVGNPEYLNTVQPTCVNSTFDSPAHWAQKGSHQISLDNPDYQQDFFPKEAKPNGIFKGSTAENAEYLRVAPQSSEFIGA

CC[C@H](NC(=O)[C@H](CC(C)C)NC(=O)[C@@H](NC(=O)[C@H](CCCCN)NC(=O)[C@H](Cc1cnc[nH]1)NC(=O)[C@H](Cc1ccc(C)cc1)NC(=O)[C@H](CCCCNC(=N)N)NC(=O)[C@H](C)NC(=O)[C@@H](NC(=O)[C@H](Cc1ccc(Cl)cc1)NC(=O)[C@@H](NC(=O)[C@H](C)NC(=O)[C@H](CC(=O)O)NC(=O)[C@@H](CCCNC(=N)N)NC(=O)[C@H](Cc1ccc(O)cc1)NC(=O)Cc1ccccc1)[C@@H](C)CC)[C@@H](C)O)C(C)C)C(=O)N[C@@H](CCC(N)=O)C(=O)N[C@@H](CC(C)C)C(=O)N[C@@H](CO)C(=O)N[C@@H](C)C(=O)N[C@@H](Cc1cnc[nH]1)C(=O)N[C@@H](CCCCN)C(=O)N[C@@H](CC(C)C)C(=O)N[C@@H](CC(C)C)C(=O)N[C@@H](CCC(N)=O)C(=O)N[C@@H](CC(=O)O)C(=O)N[C@H](C(=O)N[C@H](C(=O)N[C@H](CCCNC(=N)N)C(=O)N[C@@H](CCCCNC(=N)N)C(N)=O)[C@@H](C)CC)[C@@H](C)CC
Bmax [1]: 92.4 fmol/mg | pKd [1]: 9.03 | inhibition ([1]; concentration not given here): 68%

CCCC[C@H](NC(=O)[C@@H](NC(=O)[C@H](CC(=O)O)NC(=O)[C@H](CCC(N)=O)NC(=O)[C@H](CC(C)C)NC(=O)[C@H](CC(C)C)NC(=O)[C@H](CCCCN)NC(=O)[C@H](Cc1cnc[nH]1)NC(=O)[C@H](C)NC(=O)[C@H](CO)NC(=O)[C@H](CC(C)C)NC(=O)[C@H](CCC(N)=O)NC(=O)[C@H](CC)NC(=O)[C@H](CC(C)C)NC(=O)[C@@H](NC(=O)[C@H](CCCCN)NC(=O)[C@H](Cc1cnc[nH]1)NC(=O)[C@H](Cc1ccc(OC)cc1)NC(=O)[C@H](CCCCNC(=N)N)NC(=O)[C@H](C)NC(=O)[C@@H](NC(=O)[C@H](Cc1ccc(Cl)cc1)NC(=O)[C@@H](NC(=O)[C@H](C)NC(=O)[C@H](CC(=O)O)NC(=O)[C@@H](CCCNC(=N)N)NC(=O)[C@H](Cc1ccc(O)cc1)NC(=O)Cc1ccccc1)[C@@H](C)CC)[C@@H](C)O)C(C)C)[C@@H](C)CC)C(=O)N[C@H](CCCNC(=N)N)C(=O)N[C@@H](CCCCNC(=N)N)C(N)=O [listing 1 of 2 here]
Activity (Mus musculus [2]): 24.6 g

CCCC[C@H](NC(=O)[C@@H](NC(=O)[C@H](CC(=O)O)NC(=O)[C@H](CCC(N)=O)NC(=O)[C@H](CC(C)C)NC(=O)[C@H](CC(C)C)NC(=O)[C@H](CCCCN)NC(=O)[C@H](Cc1cnc[nH]1)NC(=O)[C@H](C)NC(=O)[C@H](CO)NC(=O)[C@H](CC(C)C)NC(=O)[C@H](CCC(N)=O)NC(=O)[C@H](CC)NC(=O)[C@H](CC(C)C)NC(=O)[C@@H](NC(=O)[C@H](CCCCN)NC(=O)[C@H](Cc1cnc[nH]1)NC(=O)[C@H](Cc1ccc(OC)cc1)NC(=O)[C@H](CCCCNC(=N)N)NC(=O)[C@H](C)NC(=O)[C@@H](NC(=O)[C@H](Cc1ccc(Cl)cc1)NC(=O)[C@@H](NC(=O)[C@H](C)NC(=O)[C@H](CC(=O)O)NC(=O)[C@@H](CCCNC(=N)N)NC(=O)[C@H](Cc1ccc(O)cc1)NC(=O)Cc1ccccc1)[C@@H](C)CC)[C@@H](C)O)C(C)C)[C@@H](C)CC)C(=O)N[C@H](CCCNC(=N)N)C(=O)N[C@@H](CCCCNC(=N)N)C(N)=O [listing 2 of 2 here]
Inhibition (MX1 [3]): 47.8% | Inhibition (MX1 [4]): 62.9%

CC(=O)O[C@@]12CO[C@@H]1C[C@H](O)[C@@]1(C)C(=O)[C@H](O)C3=C(C)[C@@H](OC(=O)[C@H](O)[C@@H](NC(=O)OC(C)(C)C)c4ccccc4)C[C@@](O)([C@@H](OC(=O)c4ccccc4)[C@H]21)C3(C)C.O.O.O [DOCETAXEL]
inhibition in vivo at 20 mg/kg (MX1 [5]): 74.1% | Bmax [1]: 278 fmol/mg | pKd [1]: 9.09 | pIC50 [6]: 9.85 | Activity (Mus musculus [7]): 24 g | inhibition in vivo at 20 mg/kg (MX1 [8]): 29% | inhibition in vivo at 20 mg/kg (MX1 [9]): 58.6%

Reference: ChEMBL document CHEMBL1147056, “Potentiation of mammary cancer inhibition by combination of antagonists of growth hormone-releasing hormone with docetaxel” (Proc Natl Acad Sci U S A, 2007)
